Here are results for one compound from patent US20080207752A1, “Poly (epsilon-caprolactone-co-methylmethacrylate), method for preparing the same using super critical fluid, and method for preparing therapeutic agent for skin diseases such as acne, atopy and athlete's foot comprising the same” (priority 2007, published 2008).

The nature of the data set: Particle size measured using a particle size analyzer. To be noted: before supercritical processing. The format is physicochemical. As for the experimental part:
At first, pretreated salicylic acid is 50-100 micron. In Examples, the size of salicylic acid particles prepared in following manners was measured using a particle size analyzer. Spherical nanoparticles of which the particle size is in the range of 50 to 300 nm can be obtained according to the presence of a poly(ε-caprolactone-co-methylmethacrylate) as a biodegradable polymer and operating conditions in the reactor.
As shown in the following Table 1, the present Examples represent the operating conditions of the reactor in the step of formation of a spherical structure. The temperature and the pressure of the reactor must be each above 304.2 K and 73.8 bar. The operating parameters in the reactor are the temperature and the pressure in reactor, the amount of carbon dioxide as a supercritical fluid, and the amount of the mixed solution prepared in the preparation step. In Example 1, the mixed solution contains salicylic acid of 0.0016% by weight alone without a biodegradable polymer. In Example 2 to 8, the solution contains both of salicylic acid of 0.0016% by weight and the poly(ε-caprolactone-co-methylmethacrylate) of 0.0014% by weight as a biodegradable polymer. […] In Examples 1 and 3, the change was measured at 313K and 323K by adjusting the reactor temperature. […]

As to `O=C(O)c1ccccc1O` [salicylic acid], the “particle size of pretreated salicylic acid” value is 50-100 micron.
